The numbers were not newly measured in patent US9393230B2, “Pharmaceutical composition on the basis of phyto-nutrients with increased bioavailability, having anti-tumor activity, and method for producing said composition (alternatives)” (Nordic Labs Limited, priority 2012, dated 2016), which cites them from elsewhere.

The structures appear in SMILES notation.

In the case of `O=C(O[C@@H]1Cc2c(O)cc(O)cc2O[C@@H]1c1cc(O)c(O)c(O)c1)c1cc(O)c(O)c(O)c1` [epigallo-3-catechin, epigallocatechol-3-gallate], the solubility in water entry is recorded as “water-soluble”.
